Data on two compounds can be found in patent publication US10697027B2, “Biological detection method for dioxins in serum, and diagnostic use therefor in metabolic syndrome and related conditions” (priority 2010, dated 2020).

For series [1], the system named is HePa1c1c7 cell line expressing pCYP1A1-luc stably. Briefly: Response test with the transformed cell line expressing the recombinant reporter gene (luciferase assay). The settings on record: for luciferase activity over the treatment time: treatment time 4, 8 (or 24) hours. It counts as cell-based, mouse. The procedure: The cell line stably expressing pCYP1A1-luc constructed in Example <1-2> was distributed in 60 mm culture dish at the density of 1×10^5 cells, followed by culture for 48 hours. Upon completion of the culture, the medium was replaced with DMEM supplemented with 0.5% charcoal-stripped FBS but not supplemented with phenol red, and indole-3-carbinol was treated thereto at the concentrations of 0, 0.01, 0.1, 1, 10, and 100 μM for 4, 8, or 24 hours. Then, the cells were collected, followed by luciferase assay.
The cell line stably expressing pCYP1A1-luc constructed in Example <1-2> was distributed in 60 mm culture dish at the density of 2×10^5 cells, followed by culture for 24 hours. Upon completion of the culture, the medium was replaced with DMEM supplemented with 0.5% charcoal-stipped FBS but not supplemented with phenol red, and 2,3,7,8-tetrachlorodibenzo-p-dioxin (TCDD) was treated thereto at the concentrations of 0, 0.1, 1, 10, 100, and 1000 pM for 4, or 8 hours. Then, the cells were collected, followed by luciferase assay.
(In a reporter assay the amount or activity of a reporter protein is the signal.)

The conditions of series [2]: mouse treated with TCDD; cited from earlier work.

`Clc1cc2c(cc1Cl)Oc1cc(Cl)c(Cl)cc1O2` [TCDD, 2,3,7,8-tetrachlorodibenzo-p-dioxin]: the “luciferase activity compared with control not treated with TCDD” value in series [1] (10~1000 pM, treated for 4 or 8 hours) is on record as “significantly increased”. Also, the “luciferase activity over the treatment time” value in series [1] is “increased over the treatment time, which was not so significant”. For the same compound, in series [2], the ATP synthesis entry is given as “suppressed” and the “ubiquinone (CoQ) in the liver” value is listed as “reduced”.
For the compound `OCc1c[nH]c2ccccc12` [indol-3-carbinol, indole-3-carbinol], the “luciferase activity compared with non-treated control group” value in series [1] (0.001~10 μM, treated for 4, 8 or 24 hours) is given as “increased dose-dependently”. Moreover, the luciferase activity increase entry in series [1] (concentration of 100 μM, treated for 4, 8 or 24 hours) was “at least 3 times”. Besides, the “luciferase activity over the treatment time” value in series [1] is “significant difference over the time was not detected”.
